Measured values as given in patent US20240294465A1, “NOVEL ANTI-FIBROTIC DRUGS” (HELMHOLTZ ZENTRUM MUNCHEN - DEUTSCHES FORSCHUNGSZENTRUM FUR …, priority 2021, published 2024).

Test system: TGFβ1-induced fibulin-1 ECM deposition in primary human lung IPF-fibroblasts (phLFs)
Test: Assessing N23P activity in inhibiting ECM deposition in IPF-fibroblasts (fibulin-1 MFI)
Format: cell-based
Conditions: Homo sapiens, 72 h, 10 μM, TGFβ1 1 ng/ml, MFI, one or two different IPF-phLFs (n=1-2)
Method: phLFs were cultured in DMEM F-12 medium with 20% fetal bovine serum (FBS) and antibiotic supplement as mentioned above. Cells were seeded with 6000 cells/well in 384-well CellCarrier plates (Perkin Elmer, Cat #6007550). Following overnight incubation, cells were starved in serum-reduced medium (1% FBS with 0.1 mM 2-phosphoascorbate (Sigma, Cat #49752)) for 24 h. Afterwards, cells were treated with TGFβ1 (1 ng/ml) or vehicle, and additionally small molecules or appropriate vehicle controls were added. After 72 h of incubation, medium was changed for starving medium with 1 μg/mL AlexaFluor-488 fluorophore conjugated anti-collagen-type-5 antibodies (SantaCruz, Clone C-5, Cat #sc-166155 AF488), 0.66 μg/mL AlexaFluor-555 fluorophore conjugated anti-collagen-type-1 antibodies (Rockland, Cat #600-401-103-0.1), and 1 μg/mL AlexaFluor-637 fluorophore conjugated anti-fibulin 1 antibodies (SantaCruz, Clone C-5, Cat #sc-25281 AF647) and 1 μg/mL Hoechst H33342 (Sigma). Fluorescenceconjugation of the collagen type 1 antibody was done by using the AlexaFluor-555 Protein Labeling Kit (Invitrogen, Cat #A20174) according to manufacturer's instructions. Labeling efficacy was controlled by photometrical means.
Following four hours of incubation, cells were washed three times with PBS and fixed with paraformaldehyde (PFA). For automated liquid handling in 384 well plates, an INTEGRA Assist Plus (INTEGRA, Zizers, Switzerland) equipped with an INTEGRA Viaflo 1I pipette (INTEGRA, Zizers, Switzerland, Cat #4642), 125 μL GripTips™ pipette tips (INTEGRA, Zizers, Switzerland, Cat #6464) and sterile reagent reservoirs (INTEGRA, Cat #4311) were applied. All automated pipetting steps with the INTEGRA Assist Plus were performed at 9.5 μL/s in order to ensure proper integrity and attachment of the deposited ECM to the culturing surface within the wells of the 384-well plates. During cell seeding the automated liquid handling was performed at 89.3 μL/s. Removal of liquids from the well-plates was done by manually inverting the plates.
Following fixation, the automated imaging was achieved by using aconfocal laser scanning microscope (LSM710, Zeiss) with automated focus detection for three-dimensional image acquisition (1024 px×1024 px×9 px which equals a dimension of 1417 μm×1417 μm×16 μm). For post-acquisition analysis images were imported into IMARIS software (Bitplane) and volume detection or alternatively quantification of the mean fluorescence intensity, as well as Hoechst-stained cell nuclei were automatically counted by using Imaris' spot detection algorithm.
Cells were seeded with 6000 cells/well in 384-well CellCarrier plates. After overnight incubation, cells were starved in serum-reduced medium (1% FBS with 0.1 mM 2-phosphoascorbate for 24 h). Then, phLFs were treated with TGFβ1 (1 ng/ml) or vehicle, and incubated together with synthesized N23Ps (10 μM) or appropriate vehicle controls. After 72 h of incubation, medium was changed for starvation medium with 1 μg/mL AlexaFluor-637 fluorophore conjugated anti-fibulin 1 antibodies (SantaCruz, Clone C-5, Cat #sc-25281 AF647) and 1 μg/mL Hoechst H33342 (Sigma). Following four hours of incubation, cells were washed three times with PBS and fixed with paraformaldehyde (PFA). Following fixation, the automated imaging was achieved by using a confocal laser scanning microscope (LSM710, Zeiss) with automated focus detection for three-dimensional image acquisition (1024 px×1024 px×9 px which equals a dimension of 1417 μm×1417 μm×16 μm). For post-acquisition analysis images were imported into IMARIS software (Bitplane) and quantified for the mean fluorescence intensity, as well as Hoechst-stained cell nuclei were automatically counted by using Imaris' spot detection algorithm.
Assessment of ECM inhibition I: Mean fluorescence intensity (MFI) values represented the degree of fibulin-1 ECM deposition in three different IPF-phLFs (n=3). […]

Compound	inhibition at 10 µM [%]
CCCCOc1ccccc1NC(=O)/C=C/c1ccc2c(c1)OC(F)(F)O2 [Example 6]	20 to 60
C#CCCOc1ccccc1NC(=O)/C=C/c1ccc(OC)cc1 [Example 46, (E)-N-(2-(but-3-yn-1-yloxy)phenyl)-3-(4-methoxyphenyl)acrylamide]	20 to 60
COc1ccc(/C=C/C(=O)Nc2ccccc2OCCCC2CC2)cc1 [Example 60, (E)-N-(2-(3-cyclopropylpropoxy)phenyl)-3-(4-methoxyphenyl)acrylamide]	> 90
CCCCOc1ccccc1NC(=O)/C=C/c1ccc2c(c1)CCC(C)(C)O2 [Example 63]	20 to 60
CCCCOc1ccccc1NC(=O)/C(=C/c1ccc(OC)cc1)C(C)C [Example 82, (E)-N-(2-butoxyphenyl)-2-(4-methoxybenzylidene)-3-methylbutanamide]	20 to 60
C#CCCCOc1ccc(/C=C/C(=O)Nc2ccccc2OCCCC)cc1 [Example 83, (E)-N-(2-butoxyphenyl)-3-(4-(pent-4-yn-1-yloxy)phenyl)acrylamide]	> 90
CCCCOc1ccccc1NC(=O)/C=C/c1ccc(S(C)(=O)=O)cc1 [Example 153, (E)-N-(2-butoxyphenyl)-3-(4-(methylsulfonyl)phenyl)acrylamide]	> 90
COc1ccc(/C=C/C(=O)Nc2ccccc2OCCC(F)(F)F)cc1 [Example 155, (E)-3-(4-methoxyphenyl)-N-(2-(3,3,3-trifluoropropoxy)phenyl)acrylamide]	60 to 90
O=C(/C=C/c1ccc2c(c1)OC(F)(F)O2)Nc1ccc(F)c(F)c1OCCC1CC1 [Example 156, (E)-N-(2-(2-cyclopropylethoxy)-3,4-difluorophenyl)-3-(2,2-difluorobenzo[d][1,3]dioxol-5-yl)acrylamide]	60 to 90
CCCCOc1ccccc1NC(=O)/C=C/c1ccc2[nH]c(C)nc2c1 [Example 161, (E)-N-(2-butoxyphenyl)-3-(2-methyl-1H-benzo[d]imidazol-5-yl)acrylamide]	> 90
CCCCOc1c(NC(=O)/C=C/c2ccc3sc(C)nc3c2)ccc(F)c1F [Example 162, (E)-N-(2-butoxy-3,4-difluorophenyl)-3-(2-methylbenzo[d]thiazol-5-yl)acrylamide]	60 to 90
CCCCOc1c(NC(=O)/C=C/c2ccc3[nH]ccc3c2)ccc(F)c1F [Example 163, (E)-N-(2-butoxy-3,4-difluorophenyl)-3-(1H-indol-5-yl)acrylamide]	20 to 60
CCCCOc1ccccc1NC(=O)/C=C/c1ccc2nonc2c1 [Example 166, (E)-3-(benzo[c][1,2,5]oxadiazol-5-yl)-N-(2-butoxyphenyl)acrylamide]	20 to 60

Same assay, conditions: Homo sapiens, 72 h, 10 μM, TGFβ1 1 ng/ml, MFI, three different IPF-phLFs (n=3)

Compound	inhibition at 10 µM [%]
CCCCOc1ccccc1NC(=O)/C=C/c1ccc(OCC(F)(F)F)cc1 [Example 2, (E)-N-(2-butoxyphenyl)-3-(4-(2,2,2-trifluoroethoxy)phenyl)acrylamide]	60 to 90
COc1ccc(/C=C/C(=O)Nc2ccccc2Oc2ccccc2)cc1 [Example 3, (E)-3-(4-methoxyphenyl)-N-(2-phenoxyphenyl)acrylamide]	> 90
COc1ccc(/C=C/C(=O)Nc2ccccc2OCc2ccc(F)cc2)cc1 [Example 5, (E)-N-(2-((4-fluorobenzyl)oxy)phenyl)-3-(4-methoxyphenyl)acrylamide]	> 90
CCCCOc1ccccc1NC(=O)/C=C/c1ccc2c(c1)OC(F)(F)O2 [Example 6]	60 to 90
CCCCOc1ccccc1NC(=O)/C=C/c1cccc(OC)c1 [Example 7, (E)-N-(2-butoxyphenyl)-3-(3-methoxyphenyl)acrylamide]	60 to 90
CCCCOc1ccccc1NC(=O)/C=C/c1ccc(OC(F)F)cc1 [Example 11, (E)-N-(2-butoxyphenyl)-3-(4-(difluoromethoxy)phenyl)acrylamide]	60 to 90
COc1ccc(/C=C/C(=O)Nc2ccccc2OCc2ccccc2)cc1 [Example 12, (E)-N-(2-(benzyloxy)phenyl)-3-(4-methoxyphenyl)acrylamide]	> 90
CCCCOc1c(NC(=O)/C=C/c2ccc(OC)cc2)ccc(F)c1F [Example 13]	> 90
CCCCOc1ccccc1NC(=O)/C=C/c1ccc(OCC)cc1 [Example 20, (E)-N-(2-butoxyphenyl)-3-(4-ethoxyphenyl)acrylamide]	60 to 90
CCCCOc1cc(Cl)ccc1NC(=O)/C=C/c1ccc(OC)cc1 [Example 21, (E)-N-(2-butoxy-4-chlorophenyl)-3-(4-methoxyphenyl)acrylamide]	20 to 60
COc1ccc(/C=C/C(=O)Nc2ccccc2OCCCC(F)(F)F)cc1 [Example 29, (E)-3-(4-methoxyphenyl)-N-(2-(4,4,4-trifluorobutoxy)phenyl)acrylamide]	20 to 60
CCCCOc1cc(F)ccc1NC(=O)/C=C/c1ccc(OC)cc1 [Example 31, (E)-N-(2-butoxy-4-fluorophenyl)-3-(4-methoxyphenyl)acrylamide]	60 to 90
CCCCOc1ccccc1NC(=O)/C=C/c1cc(F)c(OC)c(F)c1 [Example 33, (E)-N-(2-butoxyphenyl)-3-(3,5-difluoro-4-methoxyphenyl)acrylamide]	60 to 90
CCCCOc1ccccc1NC(=O)/C=C/c1ccc2c(c1)CCO2 [Example 34, (E)-N-(2-butoxyphenyl)-3-(2,3-dihydrobenzofuran-5-yl)acrylamide]	> 90
CCCCOc1cccc(Cl)c1NC(=O)/C=C/c1ccc(OC)c(OC)c1 [Example 36, (E)-N-(2-butoxy-6-chlorophenyl)-3-(3,4-dimethoxyphenyl)acrylamide]	60 to 90
CCCCOc1ccccc1NC(=O)/C=C/c1ccc2occc2c1 [Example 37, (E)-3-(benzofuran-5-yl)-N-(2-butoxyphenyl)acrylamide]	> 90
COc1ccc(/C=C/C(=O)Nc2ccccc2OCCC2CC2)cc1 [Example 38, (E)-N-(2-(2-cyclopropylethoxy)phenyl)-3-(4-methoxyphenyl)acrylamide]	> 90
COc1ccc(/C=C/C(=O)Nc2ccccc2Oc2ccc(Cl)cc2)cc1 [Example 39, (E)-N-(2-(4-chlorophenoxy)phenyl)-3-(4-methoxyphenyl)acrylamide]	60 to 90
COc1ccc(/C=C/C(=O)Nc2ccccc2Oc2ccccc2F)cc1 [Example 43, (E)-N-(2-(2-fluorophenoxy)phenyl)-3-(4-methoxyphenyl)acrylamide]	60 to 90
COc1ccc(/C=C/C(=O)Nc2ccccc2OCc2ccc(Cl)cc2)cc1 [Example 45, (E)-N-(2-((4-chlorobenzyl)oxy)phenyl)-3-(4-methoxyphenyl)acrylamide]	> 90
CCCCOc1ccccc1N(C)C(=O)/C=C/c1ccc(OC)c(OC)c1 [Example 67]	> 90
CCCCOc1ccccc1N(C)C(=O)/C=C/c1ccc(OCC)cc1 [Example 71, (E)-N-(2-butoxyphenyl)-3-(4-ethoxyphenyl)-N-methylacrylamide]	20 to 60
CCCCOc1ccccc1N(Cc1ccccc1)C(=O)/C=C/c1ccc(OC)cc1 [Example 75, (E)-N-benzyl-N-(2-butoxyphenyl)-3-(4-methoxyphenyl)acrylamide]	> 90
CCCCOc1ccccc1NC(=O)/C(C)=C/c1ccc(OC)cc1 [Example 79, (E)-N-(2-butoxyphenyl)-3-(4-methoxyphenyl)-2-methylacrylamide]	60 to 90
C#CCCCOc1ccc(/C=C/C(=O)Nc2ccccc2OCCCC)cc1 [Example 83, (E)-N-(2-butoxyphenyl)-3-(4-(pent-4-yn-1-yloxy)phenyl)acrylamide]	> 90
